# In publication PMC5882690, “Mechanical characteristics of beta sheet-forming peptide hydrogels are dependent on peptide sequence, concentration and buffer composition” (Royal Society Open Science, 2018):
# Where a SMILES comes first, the peptide text is derived from it. [ ]: non-standard residue; d: D form. Orn = NCCC[C@H](N)C(=O)O
# Tests used:
# [1] = biological target: T1, human neutrophil elastase (Homo sapiens, UniProt P08246); assay: SAP hydrogel degradation by human neutrophil elastase; type: in vitro ADME; details: human neutrophil elastase 100 µg ml^-1 (86 units ml^-1) in PBS, 37°C, 5% CO2, 20 mg ml^-1 P11-4, 15 mg ml^-1 others, Qubit Protein Assay, mean ± SD, n = 3
# T1 construct: purchased Innovative Research, USA
# T1 sequence (P08246 30-267): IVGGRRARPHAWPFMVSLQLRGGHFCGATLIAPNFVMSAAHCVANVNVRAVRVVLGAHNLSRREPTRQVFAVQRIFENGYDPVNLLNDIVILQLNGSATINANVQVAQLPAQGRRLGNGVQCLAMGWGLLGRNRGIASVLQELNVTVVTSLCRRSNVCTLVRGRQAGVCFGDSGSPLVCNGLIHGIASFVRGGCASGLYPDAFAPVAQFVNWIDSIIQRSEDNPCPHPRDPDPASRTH
# Description: SAP hydrogel dissolution and degradation properties of the peptides in the presence and absence of neutrophilic elastase and microorganisms were measured by determining the peptide content of the supernatant. Therefore, SAPs were assembled in PBS at concentrations of 20 mg ml^−1 for P11-4 and 15 mg ml^−1 for P11-8, P11-13/14 and P11-28/29. The assay was performed in a 96-well plate with gel volumes of 100 µl well^−1. 86 units ml^−1 elastase (Innovative Research, USA) (100 µg ml^−1) were added to the assembled peptides in PBS solution. After 24 h incubation at 37°C and 5% CO2, 10 µl of the supernatant was sterilely removed after 24 and 168 h and measured indirectly by monomeric peptide concentration in the supernatant using the Qubit® Protein Assay (Q33211; Thermo Fisher; fluorescence at 485/590 nm) and transferred back for the remainder of the experiment allowing peptide hydrogel degradation measurement without disturbing the hydrogel to buffer fluid balance. The measurements are based on the fact that degraded peptides cause disassembly of the fibrils, as assembly rules are no longer given, resulting in an increase in monomeric SAP in solution. SAP concentrations were calculated based on respective peptide standard curves. For data analysis, SAP concentrations measured in the supernatant were calculated as a percentage of the specific starting concentrations of each peptide system. Statistical analysis was done using a two-way ANOVA followed by Sidak's multiple comparison test.
# [2] = cited from earlier work
# From the text: The topographical structure of SAP hydrogels is important for the three-dimensional arrangement of cells within scaffolds. Zhang et al. state that the fibres of SAP hydrogels resemble the nanometre scale of natural polymer networks and thus allow three-dimensional cell growth. […] (figure 1). […] Moreover, they observed the formation fibre entanglements with diameters of 30 nm. The phenomenon of fibril clustering was also reported by Zhang et al. for the peptides KFE8 and KLD12, characterized by a typical single fibre width of 7 nm and thicker diameters for the bundles of fibres.
compound,measurement,setting,value
"CC(=O)N[C@@H](CCC(N)=O)C(=O)N[C@@H](CCC(N)=O)C(=O)N[C@@H](CCCNC(=N)N)C(=O)N[C@@H](Cc1ccccc1)C(=O)N[C@@H](CCCN)C(=O)N[C@@H](Cc1c[nH]c2ccccc12)C(=O)N[C@@H](CCCN)C(=O)N[C@@H](Cc1ccccc1)C(=O)N[C@@H](CCC(=O)O)C(=O)N[C@@H](CCC(N)=O)C(=O)N[C@@H](CCC(N)=O)C(N)=O [P11-8, CH3CO-QQRFOWOFEQQ-NH2] (Ac-QQRF[Orn]W[Orn]FEQQ-NH2)",relative peptide amount in supernatant (% of peptide starting concentration),[1]; 1 d,10.4± 3.9%
same,relative peptide amount in supernatant (% of peptide starting concentration),[1]; 7 d,10.4± 1.3%
KLD12 [reference compound],typical single fibre width,[2]; literature,7 nm
RADA16 [reference compound],fibre diameter,[2]; literature value,approximately 10 nm
